Measurements published in the supplement of paper PMC10307832.

compound: NC(=O)c1ccc(N(C(N)=O)c2c(F)cccc2F)nc1-c1ccc(F)cc1F [VX-702] + Cc1cc(Nc2cc(N3CCN(C)CC3)nc(Sc3ccc(NC(=O)C4CC4)cc3)n2)n[nH]1 [Tozasertib] (partner 0.1 µM); assay: relative viability (nuclei count vs DMSO), 5 days (fraction); higher = more cells survive; conditions: first compound 0.02 µM
How it was run: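 Cells from lung cancer lines were seeded into 1536-well plates and, one day later, dosed by pin tool. Treatments were either a single drug or a fixed dose of an anchor drug with five library-drug doses (not always all listed) in √10 steps. After 5 days, nuclei were stained in a one-step fixation (final 0.05% Triton X-100, 1% formaldehyde, 1 ug/ml Hoechst) and counted on 4× images, and relative viability is the treated-to-vehicle nuclei ratio, as the median of duplicate plates.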

Question: Which relative viability does the source give for NCI-H1355 here?
Answer: 0.497

Question: HCC-15 was tested. Which relative viability did it give?
Answer: 0.402

Question: With LU99A as the cell line, how does the relative viability read?
Answer: 0.315

Question: EKVX was tested. Which relative viability did it give?
Answer: 0.381

Question: How did the relative viability turn out when COR-L23 was run?
Answer: 0.202

Question: NCI-H1437 was tested. Which relative viability did it give?
Answer: 0.412

Question: How did the relative viability turn out when RERF-LC-KJ was run?
Answer: 0.538

Question: NCI-H1734 was tested. Which relative viability did it give?
Answer: 0.277

Question: Which relative viability does the source give for BEN here?
Answer: 0.532

Question: With NCI-H460 as the cell line, how does the relative viability read?
Answer: 0.665

Question: With H3255 as the cell line, how does the relative viability read?
Answer: 0.576

Question: SK-LU-1 was tested. Which relative viability did it give?
Answer: 0.337

Question: With NCI-H1793 as the cell line, how does the relative viability read?
Answer: 0.344

Question: NCI-H23 was tested. Which relative viability did it give?
Answer: 0.446

Question: Which relative viability does the source give for SW 1573 here?
Answer: 0.145

Question: Which relative viability does the source give for NCI-H838 here?
Answer: 0.233

Question: How did the relative viability turn out when NCI-H2342 was run?
Answer: 0.527

Question: With EPLC-272H as the cell line, how does the relative viability read?
Answer: 0.345

Question: Which relative viability does the source give for NCI-H3122 here?
Answer: 0.328

Question: For NCI-H1915, which relative viability is on record?
Answer: 0.411

Question: NCI-H727 was tested. Which relative viability did it give?
Answer: 0.738

Question: Which relative viability does the source give for NCI-H1975 here?
Answer: 0.792

Question: With LK-2 as the cell line, how does the relative viability read?
Answer: 0.153

Question: Which relative viability does the source give for NCI-H2087 here?
Answer: 0.277

Question: Which relative viability does the source give for LCLC-97TM1 here?
Answer: 0.175

Question: NCI-H661 was tested. Which relative viability did it give?
Answer: 0.35

Question: With NCI-H2405 as the cell line, how does the relative viability read?
Answer: 0.816

Question: NCI-H1993 was tested. Which relative viability did it give?
Answer: 0.525

Question: PC-3 [JPC-3] was tested. Which relative viability did it give?
Answer: 0.883

Question: Which relative viability does the source give for NCI-H2009 here?
Answer: 0.765

Question: With NCI-H2347 as the cell line, how does the relative viability read?
Answer: 0.592

Question: NCI-H520 was tested. Which relative viability did it give?
Answer: 0.443

Question: Which relative viability does the source give for LXF-289 here?
Answer: 0.208

Question: How did the relative viability turn out when NCI-H358 was run?
Answer: 0.0998

Question: LC-2-ad was tested. Which relative viability did it give?
Answer: 0.375

Question: For 201T, which relative viability is on record?
Answer: 0.959

same assay, conditions: first compound 0.2 µM

Question: Which relative viability does the source give for NCI-H1355 here?
Answer: 0.514

Question: For HCC-15, which relative viability is on record?
Answer: 0.322

Question: How did the relative viability turn out when LU99A was run?
Answer: 0.25

Question: How did the relative viability turn out when EKVX was run?
Answer: 0.36

Question: With COR-L23 as the cell line, how does the relative viability read?
Answer: 0.231

Question: With NCI-H1437 as the cell line, how does the relative viability read?
Answer: 0.432

Question: For RERF-LC-KJ, which relative viability is on record?
Answer: 0.477

Question: Which relative viability does the source give for NCI-H1734 here?
Answer: 0.248

Question: Which relative viability does the source give for BEN here?
Answer: 0.432

Question: Which relative viability does the source give for NCI-H460 here?
Answer: 0.54

Question: How did the relative viability turn out when H3255 was run?
Answer: 0.792

Question: With SK-LU-1 as the cell line, how does the relative viability read?
Answer: 0.315

Question: With NCI-H1793 as the cell line, how does the relative viability read?
Answer: 0.309

Question: For NCI-H23, which relative viability is on record?
Answer: 0.334

Question: How did the relative viability turn out when SW 1573 was run?
Answer: 0.168

Question: For NCI-H838, which relative viability is on record?
Answer: 0.285

Question: With NCI-H2342 as the cell line, how does the relative viability read?
Answer: 0.468

Question: How did the relative viability turn out when EPLC-272H was run?
Answer: 0.235

Question: NCI-H3122 was tested. Which relative viability did it give?
Answer: 0.34

Question: NCI-H1915 was tested. Which relative viability did it give?
Answer: 0.43

Question: Which relative viability does the source give for NCI-H727 here?
Answer: 0.809

Question: NCI-H1975 was tested. Which relative viability did it give?
Answer: 0.724

Question: For LK-2, which relative viability is on record?
Answer: 0.173

Question: For NCI-H2087, which relative viability is on record?
Answer: 0.236

Question: For LCLC-97TM1, which relative viability is on record?
Answer: 0.183

Question: With NCI-H661 as the cell line, how does the relative viability read?
Answer: 0.345

Question: How did the relative viability turn out when NCI-H2405 was run?
Answer: 0.724

Question: How did the relative viability turn out when NCI-H1993 was run?
Answer: 0.591

Question: How did the relative viability turn out when PC-3 [JPC-3] was run?
Answer: 0.896

Question: NCI-H2009 was tested. Which relative viability did it give?
Answer: 0.729

Question: With NCI-H520 as the cell line, how does the relative viability read?
Answer: 0.385

Question: LXF-289 was tested. Which relative viability did it give?
Answer: 0.188

Question: NCI-H358 was tested. Which relative viability did it give?
Answer: 0.0877

Question: LC-2-ad was tested. Which relative viability did it give?
Answer: 0.4

Question: How did the relative viability turn out when 201T was run?
Answer: 0.921

same assay, conditions: first compound 0.6325 µM

Question: With NCI-H1355 as the cell line, how does the relative viability read?
Answer: 0.593

Question: How did the relative viability turn out when HCC-15 was run?
Answer: 0.408

Question: Which relative viability does the source give for LU99A here?
Answer: 0.257

Question: How did the relative viability turn out when EKVX was run?
Answer: 0.379

Question: For COR-L23, which relative viability is on record?
Answer: 0.171

Question: For NCI-H1437, which relative viability is on record?
Answer: 0.405

Question: RERF-LC-KJ was tested. Which relative viability did it give?
Answer: 0.541
